Data on 16 compounds can be found in patent publication US20170216252A1, “ANTI-BACTERIAL PYRUVATE KINASE MODULATOR COMPOUNDS, COMPOSITIONS, USES AND METHODS” (SIMON FRASER UNIVERSITY, priority 2014, published 2017).

The subject of one test is S. aureus ATCC 29213. Put plainly: In vitro susceptibility, broth microdilution MIC. It counts as cell-based, Staphylococcus aureus. The procedure, abridged: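 The MIC against S. aureus 29213 was determined by CLSI 2-fold serial broth microdilution in Mueller Hinton broth. Plates were incubated for 18–24 h at 37 °C and read at OD600 with background subtracted. The MIC was the lowest concentration giving complete growth inhibition versus compound-free wells.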

Another test deals with T1, MRSA PK (Staphylococcus aureus, UniProt Q6GG09).
T1 construct: His tag (pET-28a(+) vector) (N); made in house; host or cells: E. coli BL-21 (DE3)
Put plainly: MRSA PK activity, continuous LDH-coupled assay. It counts as biochemical, S. aureus (MRSA strain Sanger 252). In short, it runs like this:
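Purified His-tagged MRSA PK (15 nM, E. coli-expressed) started reactions run up to 5 min at 30 °C. Activity was followed continuously by LDH-coupled NADH oxidation at 340 nm, with DMSO ≤1%. IC50 came from four-parameter variable-slope fits.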

The mark [1] stands for this setting: Staphylococcus aureus, ATCC29213, Table 8, tested at least in duplicate, differing values all given, read-out: MIC.
[2] abbreviates: Staphylococcus aureus, ATCC29213, Tables 1-6 and text, minimum concentration to give >98% inhibition of growth, read-out: MIC.

Values after ≈ are worked out from the molar mass of the structure shown. Like-named read-outs stand apart in the source and are kept apart here.

T1 sequence (Q6GG09 whole entry): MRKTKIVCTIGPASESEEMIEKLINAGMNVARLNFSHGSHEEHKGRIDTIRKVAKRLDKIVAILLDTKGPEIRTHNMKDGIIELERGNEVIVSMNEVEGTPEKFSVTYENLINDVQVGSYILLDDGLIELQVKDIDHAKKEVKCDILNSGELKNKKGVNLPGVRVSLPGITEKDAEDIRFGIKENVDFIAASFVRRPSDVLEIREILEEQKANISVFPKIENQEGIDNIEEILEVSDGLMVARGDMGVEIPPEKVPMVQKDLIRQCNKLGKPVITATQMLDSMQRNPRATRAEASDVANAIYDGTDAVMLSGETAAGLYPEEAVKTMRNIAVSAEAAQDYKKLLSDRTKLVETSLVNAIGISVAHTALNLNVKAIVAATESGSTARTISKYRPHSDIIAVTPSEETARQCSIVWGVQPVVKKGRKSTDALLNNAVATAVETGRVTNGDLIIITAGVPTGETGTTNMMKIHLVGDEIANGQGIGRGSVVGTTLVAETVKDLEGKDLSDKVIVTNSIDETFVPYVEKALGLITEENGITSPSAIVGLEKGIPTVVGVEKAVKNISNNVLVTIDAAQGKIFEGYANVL

For `Brc1ccc2cc(/C=C/c3ccc4ccccc4n3)[nH]c2c1` [Compound 101, (E)-2-(2-(6-bromo-1H-indol-2-yl)vinyl)quinoline], the MIC with S. aureus ATCC 29213 (setting [1]) and in the test with S. aureus ATCC 29213 (setting [2]) was above 64 µg/mL throughout. The compound also had a 50% inhibitory concentration (IC50) on MRSA PK above 1000 nM.

In the case of `O=C(Nc1nc2ccc(Br)cc2[nH]1)c1cc2ccc(Br)cc2[nH]1` [Compound 80, 6-Bromo-N-(6-bromo-1H-benzo[d]imidazol-2-yl)-1H-indole-2-carboxamide], the MIC in the test with S. aureus ATCC 29213 (setting [2]) was above 64 µg/mL. This compound also had an IC50 on MRSA PK of 1.5 nM.

As for `Brc1ccc2cc(/C=C/c3ccccc3)[nH]c2c1` [Compound 36a, (E)-6-bromo-2-styryl-1H-indole], the MIC with S. aureus ATCC 29213 (setting [2]) is above 64 µg/mL. This compound yielded an IC50 against MRSA PK of 25 nM.

Take `O=C(c1c(CCc2cc(Cl)cc(Cl)c2)[nH]c2cc(Br)ccc12)C(F)(F)F` [Compound 171, 1-(6-Bromo-2-(3,5-dichlorophenethyl)-1H-indol-3-yl)-2,2,2-trifluoroethanone]: in the test with S. aureus ATCC 29213 (setting [1]), the MIC was determined as 1 µg/mL (≈ 2.15 µM). At MRSA PK, this compound yielded an IC50 above 1000 nM.

`Fc1ccc(/C=C/c2cc3ccc(Br)cc3[nH]2)cc1` [Compound 103, (E)-6-Bromo-2-(4-fluorostyryl)-1H-indole]: the minimal inhibitory concentration (MIC) with S. aureus ATCC 29213 (setting [1]) is above 64 µg/mL. On MRSA PK, the IC50 is above 1000 nM.

Turning to `O=C(Nc1nc2cc(Br)ccc2s1)c1cc2cc(Br)ccc2[nH]1` [Compound 77, 5-Bromo-N-(5-bromobenzo[d]thiazol-2-yl)-1H-indole-2-carboxamide], the MIC in the test on S. aureus ATCC 29213 (setting [2]) was above 64 µg/mL. The compound further displayed an IC50 against MRSA PK of 8.2 nM.

`Brc1ccc(-c2ccc(-c3cncc(-c4cc5ccccc5[nH]4)n3)cc2)cc1` [Compound 61, 2-(6-(4′-Bromo-[1,1′-biphenyl]-4-yl)pyrazin-2-yl)-1H-indole]: the MIC with S. aureus ATCC 29213 (setting [2]) was above 64 µg/mL. The inhibition at 0.1 µM at MRSA PK (read-out: % inhibition (IC50)) turned out to be 61%.

With `Clc1cc(Cl)cc(/C=C/c2cc3ccc(Br)cc3[nH]2)c1` [Compound 95, (E)-6-Bromo-2-(3,5-dichlorostyryl)-1H-indole], the MIC amounted to 7.1 µg/mL (≈ 19.3 µM) in the test with S. aureus ATCC 29213 (setting [1]) and 8 µg/mL (≈ 21.8 µM) against S. aureus ATCC 29213 (Table 8, tested at least in duplicate, differing values all given). Besides, the IC50 against MRSA PK is below 50 nM.

As for `Brc1ccc(-c2cccc(-c3cc4ccccc4[nH]3)c2)cc1` [Compound 59, 2-(4′-Bromo-[1,1′-biphenyl]-3-yl)-1H-indole], the MIC in the test with S. aureus ATCC 29213 (setting [2]) is above 64 µg/mL. For the same compound, the inhibition at 10 µM on MRSA PK (read-out: % inhibition at the highest concentration tested (IC50)) was 54%.

With `Clc1ccc(NCc2cc3ccc(Br)cc3[nH]2)cc1` [Compound 147, N-((6-Bromo-1H-indol-2-yl)methyl)-4-chloroaniline], in the test with S. aureus ATCC 29213 (setting [1]), the MIC is above 64 µg/mL. This compound also had an EC50 on MRSA PK of 244 nM.

For the compound `COC(=O)c1cc(Br)cc2[nH]c(-c3cc4c(C(=O)OC)cc(Br)cc4[nH]3)cc12` [Compound 163, Dimethyl 6,6′-dibromo-1H,1′H-[2,2′-biindole]-4,4′-dicarboxylate], the MIC in the test with S. aureus ATCC 29213 (setting [1]) was above 64 µg/mL. The same compound gave a half-inhibitory concentration (IC50) against MRSA PK of 50 to 100 nM.

As for `COc1ccc(NC(=O)c2[nH]c3cc(Br)ccc3c2C(=O)O)cc1` [Compound 134, 6-Bromo-2-((4-methoxyphenyl)carbamoyl)-1H-indole-3-carboxylic acid], the MIC with S. aureus ATCC 29213 (setting [1]) is 64 µg/mL (≈ 164 µM). In addition, the IC50 against MRSA PK is below 50 nM.

Regarding `Clc1cnc(C#Cc2cc3ccc(Br)cc3[nH]2)nc1` [Compound 142, 6-Bromo-2-((5-chloropyrimidin-2-yl)ethynyl)-1H-indole], in the test on S. aureus ATCC 29213 (setting [1]), the MIC was above 64 µg/mL. On MRSA PK, this compound came in with a half-inhibitory concentration (IC50) of 50 to 100 nM.

Turning to `COc1ccc2[nH]c(-c3[nH]c4cc(Br)ccc4c3C(=O)C(F)(F)F)cc2c1` [Compound 179, 1-(6-bromo-5′-methoxy-1H,1′H-[2,2′-biindol]-3-yl)-2,2,2-trifluoroethan-1-one], the minimal inhibitory concentration (MIC) with S. aureus ATCC 29213 (setting [1]) worked out at 64 µg/mL (≈ 146 µM). At MRSA PK, this compound had an IC50 below 50 nM.

On to `O=C(Nc1cccc(Br)c1O)c1cc2ccc(Br)cc2[nH]1` [Compound 64, 6-Bromo-N-(3-bromo-2-hydroxyphenyl)-1H-indole-2-carboxamide], for which the MIC in the test on S. aureus ATCC 29213 (setting [2]) was above 64 µg/mL. In addition, at MRSA PK (Tables 1-6, 2 mM ADP, 10 mM PEP, 15 nM PK, read-out: IC50), the IC50 was 116 nM.

For `Brc1ccc(/C=C/c2cc3ccc(Br)cc3[nH]2)nc1` [Compound 99, (E)-6-Bromo-2-(2-(5-bromopyridin-2-yl)vinyl)-1H-indole], in the test with S. aureus ATCC 29213 (setting [1]), the MIC was 32 µg/mL (≈ 84.6 µM). This compound also registered an IC50 against MRSA PK of 50 to 100 nM.
